How the values were obtained:
HCT15 (colon) = assay: Cell-based cytotoxicity assay (ATPlite), HCT15; conditions: Homo sapiens, HCT-15, HCT15, 72 h, NA = not active (IC50 greater than 100 µM), read-out: IC50 Values (µM ± SEM)
Text: (§1) The following human carcinoma cell lines were used for the study: MDA-MB-231 and MCF-7 (breast cancer; ATCC, Sesto San Giovanni, MI), PEO1 and COV318 (ovarian cancer; ECACC, Salisbury, UK and ATCC), HCT-15 and SW948 (colon cancer; Public Health England, Salisbury, UK and ATCC), NCI-H1975 and NCI-H1299, (lung cancer; ATCC). Cells were routinely tested free of mycoplasma (MycoAlert mycoplasma detection kit, LONZA, Rockland, ME, USA) and validated by STR (Short Tandem Repeat) DNA profiling (BMR Genomics srl, PD). Cells were grown following supplier indication, in a fully humidified atmosphere of 5% CO2/95% air. All the reagents were purchased from Sigma-Aldrich (St. Louis, MO), if not otherwise specified.

PEO1 cells = assay: Cell cycle analysis by flow cytometry; type: cell-based, human; conditions: 48 hours, compound at its IC50 concentration
Method: In order to assess whether the ability of compound 8 to inhibit cell proliferation was accounted for by cell cycle-related changes in cell division, we analysed the progression of PEO1 cells through the cell cycle by flow cytometry at 24, 48 and 72 hours from treatment. PEO1 was selected since, in our experimental conditions, was the cell line showing the highest sensitivity to 8. […] The effect was already measurable at the first experimental time point (24 h) and remained stable over time (Fig. 8).
PEO1 cell cycle perturbations induced by compound 8 (used at its IC50 concentration) were evaluated by standard flow cytometry methods. Briefly, at the end of each incubation period adherent cells were trypsinized, harvested and washed with cold phosphate-buffered saline several times. Cells were then counted, gently fixed in 70% v/v cold ethanol, adding the ethanol dropwise to the cell pellet while vortexing, and incubated at −20 °C for no longer than 7 days. Prior to DNA staining, fixed cells were spun down and treated with RNase (100 µg/ml) for 10 mins to ensure that only DNA was stained. 1 × 10^6/ml cells were then stained with propidium iodide (PI, 0.5 mg/ml) and stored at +4 °C overnight. The day after, stained cells were subjected to flow cytometry. Flow cytometry analysis was performed using the 6-parameter flow cytometer (2 scatter and 4 fluorescence signals) EPICS-XL (Beckman Coulter). A minimum of 30,000 cells of interest were acquired for each sample at a low flow rate (<200 events/sec). Analysis of cell cycle perturbation was performed by the ModFit LT software (Verity software house). Pulse shape processing was used to exclude cell doublets from the analysis.

PEO1 (ovary) = assay: Cell-based cytotoxicity assay (ATPlite), PEO1; set-up: species or system human; conditions: Homo sapiens; PEO1, 72 h, ATPlite; NA = not active (IC50 greater than 100 µM); read-out: IC50 Values (µM ± SEM)
Text: as §1

NEK7 = NEK7 (Homo sapiens, UniProt Q8TDX7); assay: Off-chip Mobility Shift Assay (MSA) profiling, NEK7; type: biochemical; conditions: ATP approximating Km
Method: (§2) Therefore, we decided to evaluate the selectivity of compound 8 against a panel of NEK kinases at 10 µM, using the technique of Off-chip Mobility shift assay. This concentration was chosen according to the guidelines proposed by Knight and Shokat, since the probability of off-target effects increases dramatically above 10 µM[36]. Furthermore, ATP concentration was set to approximate the Km,ATP for each kinase, so that the resulting selectivity profile directly reflects the intrinsic affinities of the inhibitor[37]. […] A major consequence of this substitution may be the redistribution of surface charges at the flexible activation loop resulting in an altered electrostatic potential and ability of NEK6 kinase to interact with other molecules.
(§3) The inhibitory activity of compounds 8 and 21 on NEK6 was also verified with MSA technique (Off-chip Mobility shift assay) (CARNA Biosciences Study ID: CBS170097, CARNA Biosciences, Kobe). […] PKR Inhibitor was used as positive control. For profiling study against NEK kinases (i.e. NEK1, NEK2, NEK6, NEK7, NEK9) (CARNA Biosciences Study ID: CBS170098), 8 was tested at 10 μM and ATP concentration approximating Km for each kinase. Assay condition for kinases are available on “Kinase profiling book” downloading by www.carnabio.com (https://www.carnabio.com/output/pdf/ProfilingProfilingBook_en.pdf).

NEK6 = target: T1, NEK6 (Homo sapiens, UniProt Q9HC98); assay: Off-chip Mobility Shift Assay (MSA), NEK6; type: biochemical
T1 construct: purchased Carna 05-130
Method: as §2, §3

NEK9 = target: T2, NEK9 (Homo sapiens, UniProt Q8TD19); assay: Off-chip Mobility Shift Assay (MSA) profiling, NEK9; type: biochemical; conditions: ATP approximating Km
T2 sequence (Q8TD19 1-979): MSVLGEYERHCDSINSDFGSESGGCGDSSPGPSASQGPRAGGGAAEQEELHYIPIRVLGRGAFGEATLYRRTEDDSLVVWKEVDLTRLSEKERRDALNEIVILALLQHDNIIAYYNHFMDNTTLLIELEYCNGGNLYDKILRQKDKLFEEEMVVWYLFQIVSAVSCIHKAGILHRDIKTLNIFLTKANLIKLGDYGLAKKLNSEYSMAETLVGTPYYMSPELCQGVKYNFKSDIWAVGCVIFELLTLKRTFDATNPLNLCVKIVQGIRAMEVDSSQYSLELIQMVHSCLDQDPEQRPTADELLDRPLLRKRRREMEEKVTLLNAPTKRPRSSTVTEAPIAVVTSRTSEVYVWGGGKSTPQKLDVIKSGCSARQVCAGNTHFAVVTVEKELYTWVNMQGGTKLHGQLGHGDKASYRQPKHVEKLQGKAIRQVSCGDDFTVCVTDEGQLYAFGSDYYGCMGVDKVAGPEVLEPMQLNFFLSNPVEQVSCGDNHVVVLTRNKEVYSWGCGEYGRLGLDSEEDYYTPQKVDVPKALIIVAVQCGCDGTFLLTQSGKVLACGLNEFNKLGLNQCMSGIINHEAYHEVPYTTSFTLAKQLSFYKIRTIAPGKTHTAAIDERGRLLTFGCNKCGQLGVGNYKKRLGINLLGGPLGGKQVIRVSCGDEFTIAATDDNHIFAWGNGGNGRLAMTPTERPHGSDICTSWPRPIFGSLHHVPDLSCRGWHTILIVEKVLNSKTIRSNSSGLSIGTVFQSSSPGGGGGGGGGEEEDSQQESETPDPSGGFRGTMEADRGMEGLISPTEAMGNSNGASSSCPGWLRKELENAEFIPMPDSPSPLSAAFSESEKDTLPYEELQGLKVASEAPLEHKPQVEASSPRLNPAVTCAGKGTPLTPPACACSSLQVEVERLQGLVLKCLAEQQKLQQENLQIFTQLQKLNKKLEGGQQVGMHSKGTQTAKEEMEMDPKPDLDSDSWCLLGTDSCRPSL
Method: as §2, §3

T1 sequence (Q9HC98 whole entry): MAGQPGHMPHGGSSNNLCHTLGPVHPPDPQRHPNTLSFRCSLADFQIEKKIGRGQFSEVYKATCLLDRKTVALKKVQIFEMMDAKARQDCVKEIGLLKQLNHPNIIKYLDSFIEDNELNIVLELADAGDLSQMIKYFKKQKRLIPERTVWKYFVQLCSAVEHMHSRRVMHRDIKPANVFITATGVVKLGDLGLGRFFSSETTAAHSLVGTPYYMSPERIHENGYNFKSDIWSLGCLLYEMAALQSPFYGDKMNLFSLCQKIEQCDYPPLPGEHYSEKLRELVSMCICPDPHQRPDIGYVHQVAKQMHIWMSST
NEK7, sequence (Q8TDX7 whole entry): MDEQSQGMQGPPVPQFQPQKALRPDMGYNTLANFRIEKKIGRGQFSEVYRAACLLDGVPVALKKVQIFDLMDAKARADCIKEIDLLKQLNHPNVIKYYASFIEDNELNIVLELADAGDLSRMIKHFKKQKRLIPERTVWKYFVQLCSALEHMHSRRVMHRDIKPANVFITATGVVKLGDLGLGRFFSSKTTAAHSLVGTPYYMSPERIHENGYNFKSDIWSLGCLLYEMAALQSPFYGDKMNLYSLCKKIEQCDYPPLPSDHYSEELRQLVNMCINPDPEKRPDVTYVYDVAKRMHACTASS

inhibition at 10 µM (NEK7): ≤ 0%
inhibition at 10 µM (NEK6; 10 µM, ATP approximating Km): 42.5%
IC50 (NEK6; CARNA Biosciences Study CBS170097, ATP 75 µM): 13.8 µM
Structure (SMILES): CC1=C(C#N)C(O)=NC(=O)/C1=C\c1ccc(-c2ccccc2)o1 [Compound 8, (5Z)-2-hydroxy-4-methyl-6-oxo-5-[(5-phenylfuran-2-yl)methylidene]-5,6-dihydropyridine-3-carbonitrile]
IC50 (HCT15 (colon)): 98.5 ± 0.5 µM
percentage of PEO1 cells in G0/G1 (PEO1 cells): 61%
percentage of PEO1 cells in G2/M (PEO1 cells): 16%
percentage of PEO1 cells in S (PEO1 cells): 23%
IC50 (PEO1 (ovary)): 44 ± 6.5 µM
inhibition at 10 µM (NEK9): 3.1%

Reference: paper PMC6207720, “Identification and antitumor activity of a novel inhibitor of the NIMA-related kinase NEK6” (Scientific Reports, 2018)
